According to PMC10515483, “Structure–Reactivity Studies of 2-Sulfonylpyrimidines Allow Selective Protein Arylation” (Bioconjugate Chemistry, 2023):
Values belong to the compound of their own block, whether it stands above or below them.

What was measured:
p53-Y220C DBD = biological target: T1, p53-Y220C DBD (Homo sapiens, UniProt P04637, M133L/N239Y/N268D/V203A/Y220C); assay: Protein arylation by ESI mass spectrometry; assay type: binding
T1 construct: (residues 94-312); 6xHis/lipoyl domain/TEV protease cleavage site (N, cleaved yes); made in house; host or cells: E. coli C41
Method: In mass spectrometry experiments, we incubated 50 μM purified p53-Y220C DBD in KPi buffer at varying pH’s (6.0–8.0), temperatures (0 and 20 °C), and equivalents of 2-SPs (20–100). Representative 2-SPs were selected to span a broad reactivity range to determine whether trends observed in GSH in vitro assays translate to relative rates of modification of solvent exposed cysteines in folded proteins. […] The same could also be achieved with only 20 equiv of reagent by increasing the temperature to 20 °C, or raising the pH to 8.0. This is an important result because late-stage protein functionalization with bromo- and iodo-(hetero)aromatic motifs is challenging and inaccessible by metal-catalyzed arylation methodologies due to dehalogenation and/or off-target specificity. The introduction of an iodo-(hetero)aromatic motif on the protein surface facilitates drastically the crystal structure resolution with a sharp variation of density. […] Overall, we observed good correlation between GSH and protein experiments.
Figure 4 Biophysical and structural characterization of protein cysteine arylation by 2-SPs. […] Stoichiometry, reaction time/temperature, and pH are indicated in each case. X axis: m/z (Da). Y axis: normalized intensities as a percentage of the most intense peak. Middle: Structure of the modified Y220C mutant (green) superimposed onto the structure of the unmodified protein (gray, PDB entry 6SHZ)[40] showing the region around modified C182 (E) and C277 (F). Hydrogen bonds formed by the pyrimidine are highlighted as dashed yellow lines. 2Fo – Fc electron density maps are shown at a contour level of 1.3σ for segments of chain B including the modified residues C182 and C277. Bottom (F): Protein thermal stability (ΔTm, °C) of p53-Y220C, β-catenin ARD. and FGE, determined by DSF in the presence of 100 μM 2-SP derivatives. […]

[1] = NACME arylation rate constant (NMR); assay type: physicochemical
From the text: We employed nuclear magnetic resonance (NMR) and UV–vis to quantify the reactivity of our 2-SP derivatives and other representative electrophiles (Figure 2) against cysteine. NMR allowed straightforward determination of reaction rate constants through dual monitoring of the consumption of the warhead and formation of the product by integration of their respective NMR signals (Figures S1–S3). It simultaneously provided a direct readout on reaction specificity and hydrolytic stability of the warhead. All measurements were carried out in KPi buffer in the presence of 5% d^6-dmso, which is generally well-tolerated by a wide range of proteins in in vitro studies. N-acetylcysteine methylester (NACME) and L-glutathione (GSH) are useful model cysteine nucleophiles for in vitro studies of electrophilic agents.[32] Mixing reference electrophile 2-methylsulfonylpyrimidine (4q) with NACME or GSH in a 1:10 ratio (pseudo-first-order conditions) allowed extraction of accurate and reproducible second order rate constants (k). At pH 7.0, quantitative arylation of NACME occurred […] (k ≈ 4.5 × 10^–2 M^–1 s^–1), whereas GSH reacted approximately 3 times slower (k ≈ 1.6 × 10^–2 M^–1 s^–1; Figures S1–S3). […]
transferred to the NMR instrument for acquisition. 1H spectra (16 scans) were recorded every 10 minutes under water suppression conditions. Following acquisition, spectra were analysed using […]

protein arylation by ESI-MS (in words) (p53-Y220C DBD; 100 equiv, 0 °C, pH 7.2): completely selective double arylation
time to selective double arylation (p53-Y220C DBD; 100 equiv, 0 °C, pH 7.2): 2.5 h
Structure (SMILES): CS(=O)(=O)c1ncc(Br)cn1 [4t]

protein arylation by ESI-MS (in words) (p53-Y220C DBD; 100 equiv, 0 °C, pH 7.2): completely selective double arylation
Structure (SMILES): CS(=O)(=O)c1ncc(I)cn1 [4u]

Structure (SMILES): Cc1cc(C)nc(S(C)(=O)=O)n1 [4a]
protein modification by ESI-MS (in words) (p53-Y220C DBD; 50 μM protein, all conditions tested, even after 4 h at 20 °C): could not detect any protein modification

Structure (SMILES): CS(=O)(=O)c1ncccn1 [4q, 2-methylsulfonylpyrimidine]
times faster at pH 7.0 vs 6.5 ([1]; NACME): approximately 5 times
second order rate constant k with NACME ([1]; pH 7.0, 1:10 ratio): ≈ 4.5 × 10^–2 M^–1 s^–1
